Assay: Fluorescence activation of III-3 fluorophore by Pepper aptamers and mutants
Type: biochemical
Conditions: for Activation folds: 1 μM III-3 with 5 μM RNA
Procedure: Preparation of Pepper or Pepper mutant aptamer according to the commonly used experimental method (1). 5 μM aptamer and 1 μM fluorophore were incubated in the detection buffer (40 mM HEPES, pH 7.4, 125 mM KCl, 5 mM MgCl2, 5% DMSO). The maximal excitation and emission peaks of the aptamer-fluorophore complexes were determined using a Synergy Neo2 multifunctional microplate reader. The fluorescence intensities of the aptamer-fluorophore complexes at the maximal excitation and emission peaks were determined using a Synergy Neo2 multifunctional microplate reader. The control sample (1 μM fluorophore without aptamer) was also measured under the same conditions. Then the ratios of fluorescence intensity were calculated. For example, the fluorescence maximal excitation and emission peaks of the complex of 5 μM F30-Pepper-2 and 1 μM III-3 fluorophore are 485 nm and 530 nm, respectively. The fluorescence intensity of the complex at 485±10 nm excitation and 530 nm±10 nm emission was 36,000, the fluorescence intensity of the control sample (1 μM III-3 fluorophore only) under the same detection conditions was 10. Thus, the activation ratio of F30-Pepper-2 aptamer on III-3 fluorophore was 3,600-fold.
In order to detect the fluorescence activation of III-3 fluorophore by different Pepper mutant, the Pepper-1 sequence in F30-Pepper-1 was mutated according to Table 1. […] 1 μM III-3 was incubated with […] RNA and their fluorescence activation folds were determined according to the commonly used experimental method (5). […] In summary, many Pepper mutants containing single and multiple mutants still retain the ability to activate the fluorescence of III-3 fluorophore.
In order to detect the activation of III-3 by modified Pepper, base-modified Pepper-3 was synthesized (SEQ ID NO: 6, the underlined nucleotides in […] GGCC contain deoxyribonucleotide bases) and Pepper-4 (SEQ ID NO: 7, the underlined nucleotides in […] GGGCC contain 2′-F modification) (synthesized by Shanghai GenePharma Co., Ltd), which contain deoxyribonucleotides replacement (shaded bases in FIG. 5A) or 2′-F modification (shaded bases in FIG. 5B) in the stem-loop region of Pepper. Detection of the fluorescence activation of III-3 fluorophore by these modified Peppers was carried out according to the commonly used experimental method (5).

[1] = Activation of III-3 by Pepper mutants with multiple mutations
[2] = Activation of III-3 by Pepper mutants with single mutation

Row | Substance | Activation folds [1] | Activation folds [2] | other results
1 | C2G/G31C/G10U/C30A: F30-Pepper-1 mutant aptamer (NGCAAUCGUUGCGUGUCGNNNACUGGCGCACN; Pepper mutant embedded in F30 scaffold, chemistry not given here, further chemistry not given here) | 3125 folds | – | –
2 | C27U: F30-Pepper-1 mutant aptamer (NCCAAUCGUGGCGUGUCGNNNACUGGUGCCGN; Pepper mutant embedded in F30 scaffold, chemistry not given here, further chemistry not given here) [Compound C27U] | – | 3158 folds | –
3 | C7A: F30-Pepper-1 mutant aptamer (NCCAAUAGUGGCGUGUCGNNNACUGGCGCCGN; RNA, backbone, methylation of C and the base at N not given here; Pepper aptamer mutant embedded in F30 scaffold) [Compound C7A] | – | 1044 folds | –
4 | C27G: F30-Pepper-1 mutant aptamer (NCCAAUCGUGGCGUGUCGNNNACUGGGGCCGN; Pepper mutant embedded in F30 scaffold, chemistry not given here, further chemistry not given here) [Compound C27G] | – | 1875 folds | –
5 | Pepper-4: base-modified Pepper, SEQ ID NO: 7, 2′-F modification in the stem-loop region (GGCCCCCCAAUCGUGGCGUGUCGGCCUGCUUCGGCAGGCACUGGCGCCGGGGGCC; 2'-fluoro at some stem-loop positions, underlined positions not recoverable, further chemistry not given here) | – | – | fluorescence activation of III-3 by base-modified Pepper (deoxyribonucleotide or 2′-F modification in stem-loop region): significantly activate the fluorescence of III-3 fluorophore
6 | C2A/G31U/G10A/C30U: F30-Pepper-1 mutant aptamer (NACAAUCGUAGCGUGUCGNNNACUGGCGCUUN; Pepper mutant embedded in F30 scaffold, chemistry not given here, further chemistry not given here) | 3105 folds | – | –
7 | C2U/G31A/G10U/C30A: F30-Pepper-1 mutant aptamer (NUCAAUCGUUGCGUGUCGNNNACUGGCGCAAN; Pepper mutant embedded in F30 scaffold, chemistry not given here, further chemistry not given here) | 2583 folds | – | –
8 | U6A: F30-Pepper-1 mutant aptamer (NCCAAACGUGGCGUGUCGNNNACUGGCGCCGN; RNA, backbone and the base at N not given here; Pepper variant inserted in F30 scaffold RNA) [Compound U6A] | – | 1872 folds | –
9 | C2G/G31C/G10A/C30U/U6G/C27U: F30-Pepper-1 mutant aptamer (NGCAAGCGUAGCGUGUCGNNNACUGGUGCUCN; RNA, backbone, methylation of C and the base at N not given here; Pepper aptamer mutant embedded in F30 scaffold) | 758 folds | – | –
10 | G11A: F30-Pepper-1 mutant aptamer (NCCAAUCGUGACGUGUCGNNNACUGGCGCCGN; RNA, backbone, methylation of C and the base at N not given here; Pepper aptamer mutant embedded in F30 scaffold) [Compound G11A] | – | 1526 folds | –
11 | U9A: F30-Pepper-1 mutant aptamer (NCCAAUCGAGGCGUGUCGNNNACUGGCGCCGN; RNA, backbone and the base at N not given here; Pepper variant inserted in F30 scaffold RNA) [Compound U9A] | – | 2124 folds | –
12 | C2A/G31U/G10C/C30G: F30-Pepper-1 mutant aptamer (NACAAUCGUCGCGUGUCGNNNACUGGCGCGUN; Pepper mutant embedded in F30 scaffold, chemistry not given here, further chemistry not given here) | 3475 folds | – | –
13 | C30A: F30-Pepper-1 mutant aptamer (NCCAAUCGUGGCGUGUCGNNNACUGGCGCAGN; RNA, backbone, methylation of C and the base at N not given here; Pepper aptamer mutant embedded in F30 scaffold) [Compound C30A] | – | 1596 folds | –
14 | A4C: F30-Pepper-1 mutant aptamer (NCCCAUCGUGGCGUGUCGNNNACUGGCGCCGN; Pepper mutant embedded in F30 scaffold, chemistry not given here, further chemistry not given here) [Compound A4C] | – | 2772 folds | –
15 | C2A/G31U/G10U/C30A: F30-Pepper-1 mutant aptamer (NACAAUCGUUGCGUGUCGNNNACUGGCGCAUN; Pepper mutant embedded in F30 scaffold, chemistry not given here, further chemistry not given here) | 3024 folds | – | –
16 | C2G/G31C/G10C/C30G: F30-Pepper-1 mutant aptamer (NGCAAUCGUCGCGUGUCGNNNACUGGCGCGCN; Pepper mutant embedded in F30 scaffold, chemistry not given here, further chemistry not given here) | 2684 folds | – | –
17 | C3A: F30-Pepper-1 mutant aptamer (NCAAAUCGUGGCGUGUCGNNNACUGGCGCCGN; RNA, backbone, methylation of C and the base at N not given here; Pepper aptamer mutant embedded in F30 scaffold) [Compound C3A] | – | 2484 folds | –
18 | C2U/G31A/G10C/C30G: F30-Pepper-1 mutant aptamer (NUCAAUCGUCGCGUGUCGNNNACUGGCGCGAN; Pepper mutant embedded in F30 scaffold, chemistry not given here, further chemistry not given here) | 2986 folds | – | –
19 | C29G: F30-Pepper-1 mutant aptamer (NCCAAUCGUGGCGUGUCGNNNACUGGCGGCGN; Pepper mutant embedded in F30 scaffold, chemistry not given here, further chemistry not given here) [Compound C29G] | – | 2145 folds | –
20 | G18C: F30-Pepper-1 mutant aptamer (NCCAAUCGUGGCGUGUCCNNNACUGGCGCCGN; RNA, backbone, methylation of C and the base at N not given here; Pepper aptamer mutant embedded in F30 scaffold) [Compound G18C] | – | 1028 folds | –
21 | U6C: F30-Pepper-1 mutant aptamer (NCCAACCGUGGCGUGUCGNNNACUGGCGCCGN; RNA, backbone and the base at N not given here; Pepper variant inserted in F30 scaffold RNA) [Compound U6C] | – | 2088 folds | –
22 | C2A/G31U: F30-Pepper-1 mutant aptamer (NACAAUCGUGGCGUGUCGNNNACUGGCGCCUN; Pepper mutant embedded in F30 scaffold, chemistry not given here, further chemistry not given here) | 3365 folds | – | –
23 | G28U: F30-Pepper-1 mutant aptamer (NCCAAUCGUGGCGUGUCGNNNACUGGCUCCGN; RNA, backbone and the base at N not given here; Pepper variant inserted in F30 scaffold RNA) [Compound G28U] | – | 873 folds | –
24 | G11U: F30-Pepper-1 mutant aptamer (NCCAAUCGUGUCGUGUCGNNNACUGGCGCCGN; RNA, backbone, methylation of C and the base at N not given here; Pepper aptamer mutant embedded in F30 scaffold) [Compound G11U] | – | 1512 folds | –
25 | C29U: F30-Pepper-1 mutant aptamer (NCCAAUCGUGGCGUGUCGNNNACUGGCGUCGN; Pepper mutant embedded in F30 scaffold, chemistry not given here, further chemistry not given here) [Compound C29U] | – | 1437 folds | –

From patent US12662676B2, “Aptamer nucleic acid molecule, and complex and application thereof” (EAST CHINA UNIVERSITY OF SCIENCE AND TECHNOLOGY, priority 2019, dated 2026)
